# Test results reported in patent US10479780B2, “Aminopyrazole derivatives” (Chugai Seiyaku Kabushiki Kaisha, priority 2015, dated 2019).
# pIC50: −log10 of the molar value. Where two headings read alike, the source gives them in different places.
# Tests used:
# Type in all cases: biochemical
# human Yes1 enzyme = target: T1, human Yes1 enzyme (Homo sapiens, UniProt P07947); assay: Yes1 enzyme inhibitory activity (time-resolved fluorometry, biotinylated peptide phosphorylation); conditions: read-out: YES_IC50
# T1 construct: made in house
# How it was run: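 Inhibition was expressed against a compound-free control to give IC50, using TR-FRET read-out (Eu-cryptate anti-pTyr antibody, streptavidin-XL665).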
# human Src enzyme = target: T2, human Src enzyme (Homo sapiens, UniProt P12931); assay: Src enzyme inhibitory activity (time-resolved fluorometry, biotinylated peptide phosphorylation); conditions: read-out: SRC_IC50
# T2 construct: purchased Carna Biosciences, Inc. 08-173
# How it was run: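 Compounds were tested for blocking tyrosine phosphorylation of a biotinylated peptide substrate by recombinant human Src. Phosphorylated product was quantified by time-resolved fluorometry using europium cryptate and XL665 conjugates, and IC50 was calculated against the compound-free control.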
# human Lck enzyme = target: T3, human Lck enzyme (Homo sapiens, UniProt P06239); assay: Lck enzyme inhibitory activity (time-resolved fluorometry, biotinylated peptide phosphorylation); conditions: read-out: LCK_IC50
# T3 construct: purchased Carna Biosciences, Inc. 08-170
# How it was run: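 Readout pairs a europium cryptate-labelled anti-phosphotyrosine antibody with XL665-streptavidin, measured by time-resolved fluorescence. IC50 derived from percent inhibition against untreated controls.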
# [1] = biotinylated peptide phosphorylation
# T3 sequence (P06239 whole entry): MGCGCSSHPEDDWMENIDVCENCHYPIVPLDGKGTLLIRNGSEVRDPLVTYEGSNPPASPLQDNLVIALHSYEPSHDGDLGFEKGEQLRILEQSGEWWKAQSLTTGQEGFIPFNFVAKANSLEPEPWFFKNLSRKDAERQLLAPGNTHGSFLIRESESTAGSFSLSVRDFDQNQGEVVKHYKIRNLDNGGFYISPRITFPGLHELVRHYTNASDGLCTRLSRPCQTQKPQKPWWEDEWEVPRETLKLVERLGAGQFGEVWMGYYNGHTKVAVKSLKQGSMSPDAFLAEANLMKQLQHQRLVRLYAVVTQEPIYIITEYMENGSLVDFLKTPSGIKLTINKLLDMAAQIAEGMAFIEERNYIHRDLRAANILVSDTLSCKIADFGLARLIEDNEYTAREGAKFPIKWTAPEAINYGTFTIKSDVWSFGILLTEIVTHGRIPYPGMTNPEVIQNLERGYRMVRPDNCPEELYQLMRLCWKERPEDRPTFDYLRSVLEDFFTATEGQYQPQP
# T2 sequence (P12931 whole entry): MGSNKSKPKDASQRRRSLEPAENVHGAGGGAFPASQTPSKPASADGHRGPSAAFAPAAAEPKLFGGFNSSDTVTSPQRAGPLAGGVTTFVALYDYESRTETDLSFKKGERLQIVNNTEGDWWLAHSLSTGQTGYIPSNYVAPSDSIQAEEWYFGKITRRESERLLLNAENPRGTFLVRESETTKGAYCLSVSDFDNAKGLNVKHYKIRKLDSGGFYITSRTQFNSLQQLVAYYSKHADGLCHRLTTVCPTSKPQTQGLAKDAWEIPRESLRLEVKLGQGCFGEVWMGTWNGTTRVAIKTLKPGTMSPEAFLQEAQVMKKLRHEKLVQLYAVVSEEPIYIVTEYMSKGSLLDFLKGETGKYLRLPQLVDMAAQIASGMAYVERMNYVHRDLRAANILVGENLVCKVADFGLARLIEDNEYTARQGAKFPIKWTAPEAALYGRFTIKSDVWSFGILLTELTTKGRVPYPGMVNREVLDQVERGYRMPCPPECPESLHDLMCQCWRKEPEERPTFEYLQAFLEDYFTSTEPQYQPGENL
# T1 sequence (P07947 whole entry): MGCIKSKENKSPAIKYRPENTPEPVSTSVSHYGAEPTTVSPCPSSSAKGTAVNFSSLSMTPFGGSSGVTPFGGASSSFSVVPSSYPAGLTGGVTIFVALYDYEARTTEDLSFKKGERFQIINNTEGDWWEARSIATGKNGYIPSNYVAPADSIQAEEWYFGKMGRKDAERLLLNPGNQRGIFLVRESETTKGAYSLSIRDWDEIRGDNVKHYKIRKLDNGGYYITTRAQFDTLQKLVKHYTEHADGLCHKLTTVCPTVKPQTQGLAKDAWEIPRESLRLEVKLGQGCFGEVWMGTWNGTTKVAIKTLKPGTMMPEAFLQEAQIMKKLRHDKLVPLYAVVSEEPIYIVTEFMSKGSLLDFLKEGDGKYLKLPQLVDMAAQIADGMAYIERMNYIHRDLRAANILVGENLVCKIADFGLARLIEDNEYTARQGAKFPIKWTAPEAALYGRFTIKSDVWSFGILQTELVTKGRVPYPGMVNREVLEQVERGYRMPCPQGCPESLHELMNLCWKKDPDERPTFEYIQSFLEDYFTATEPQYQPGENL
SMILES,pIC50 (human Yes1 enzyme; [1]),pIC50 (human Src enzyme; [1]),pIC50 (human Lck enzyme; [1]),pIC50 (human Yes1 enzyme),pIC50 (human Src enzyme),pIC50 (human Lck enzyme)
"Cc1cc(Oc2ccccc2F)ccc1-n1ncc(C(=O)c2cc3cc(OC(F)F)c(-n4c(C)cc(=O)[nH]c4=O)cc3[nH]2)c1N [Example 4-23-031, 1-[2-[5-amino-1-[4-(2-fluorophenoxy)-2-methylphenyl]pyrazole-4-carbonyl]-5-(difluoromethoxy)-1H-indol-6-yl]-6-methylpyrimidine-2,4-dione]",8.82,7.85,8.28,,,
"Cc1cc(Oc2ccccc2F)ccc1-n1ncc(C(=O)c2cc3cc(OCC(F)F)c(NC4COC4)cc3[nH]2)c1N [Example 4-23-016, [5-amino-1-[4-(2-fluorophenoxy)-2-methylphenyl]pyrazol-4-yl]-[5-(2,2-difluoroethoxy)-6-(oxetan-3-ylamino)-1H-indol-2-yl]methanone]",9.03,7.68,8.27,,,
"Cc1cc2cc(C(=O)c3cnn(-c4cnc(Oc5c(F)cccc5F)cc4C)c3N)[nH]c2cc1N1C(=O)NC2(CCCC2)C1=O [Example 5-1-367, 3-[2-[5-amino-1-[6-(2,6-difluorophenoxy)-4-methylpyridin-3-yl]pyrazole-4-carbonyl]-5-methyl-1H-indol-6-yl]-1,3-diazaspiro[4.4] nonane-2,4-dione]",,,,8.25,7.11,7.80
"Cc1cc(Oc2ccccc2F)ncc1-n1ncc(C(=O)c2cc3cc(OCC(F)F)c(NS(=O)(=O)C4CCOCC4)cc3[nH]2)c1N [Example 5-1-326, N-[2-[5-amino-1-[6-(2-fluorophenoxy)-4-methylpyridin-3-yl]pyrazole-4-carbonyl]-5-(2,2-difluoroethoxy)-1H-indol-6-yl]oxane-4-sulfonamide]",,,,9.07,7.27,7.60
"Cc1cc(Oc2ccccc2F)ncc1-n1ncc(C(=O)c2cc3cc(F)c(NS(=O)(=O)c4cccc(F)c4)cc3[nH]2)c1N [Example 5-1-554, N-[2-[5-amino-1-[6-(2-fluorophenoxy)-4-methylpyridin-3-yl]pyrazole-4-carbonyl]-5-fluoro-1H-indol-6-yl]-3-fluorobenzenesulfonamide]",7.89,5.82,6.59,,,
"Cc1cc2cc(C(=O)c3cnn(-c4ccc(Oc5ccccc5F)cc4C)c3N)[nH]c2cc1NS(=O)(=O)CC(=O)N1CCOCC1 [Example 4-10-007, N-{2-{5-amino-1-[4-(2-fluorophenoxy)-2-methylphenyl]pyrazole-4-carbonyl}-5-methyl-1H-indol-6-yl}-2-morpholin-4-yl-2-oxoethanesulfonamide]",9.32,7.89,8.07,,,
"Cc1cc2cc(C(=O)c3cnn(-c4cnc(Oc5c(F)cccc5F)cc4C)c3N)[nH]c2cc1N1C(=O)[C@@H]2C[C@@H](O)CN2C1=O [Example 5-1-455, (6R,7aS)-2-[2-[5-amino-1-[6-(2,6-difluorophenoxy)-4-methylpyridin-3-yl]pyrazole-4-carbonyl]-5-methyl-1H-indol-6-yl]-6-hydroxy-5,6,7,7a-tetrahydropyrrolo[1,2-c]imidazole-1,3-dione]",9.07,7.64,8.59,,,
"Cc1cc(Oc2cccc(F)c2F)ncc1-n1ncc(C(=O)c2cc3cc(F)c(NS(=O)(=O)C4CC4)cc3[nH]2)c1N [Example 4-2-045, N-[2-[5-amino-1-[6-(2,3-difluorophenoxy)-4-methylpyridin-3-yl]pyrazole-4-carbonyl]-5-fluoro-1H-indol-6-yl]cyclopropanesulfonamide]",8.31,6.64,7.05,,,
"Cc1cc(Oc2ccccc2F)ccc1-n1ncc(C(=O)c2cc3cc(OCC(F)F)c(C4CCN(S(C)(=O)=O)CC4)cc3[nH]2)c1N [Example 4-17-015, [5-amino-1-[4-(2-fluorophenoxy)-2-methylphenyl]pyrazol-4-yl]-[5-(2,2-difluoroethoxy)-6-(1-methylsulfonylpiperidin-4-yl)-1H-indol-2-yl]methanone]",8.30,7.85,7.85,,,
"Cc1cc(Oc2c(F)cccc2F)ncc1-n1ncc(C(=O)c2cc3cc(OC(F)F)c(NS(=O)(=O)CCCF)cc3[nH]2)c1N [Example 4-24-012, N-[2-[5-amino-1-[6-(2,6-difluorophenoxy)-4-methylpyridin-3-yl]pyrazole-4-carbonyl]-5-(difluoromethoxy)-1H-indol-6-yl]-3-fluoropropane-1-sulfonamide]",8.40,7.00,7.55,,,
"Cc1cc2cc(C(=O)c3cnn(-c4cnc(Oc5c(F)cccc5F)cc4C)c3N)[nH]c2cc1N1C(=O)NC2(CCNC2)C1=O (stereo not drawn) [Example 5-1-358, 3-[2-[5-amino-1-[6-(2,6-difluorophenoxy)-4-methylpyridin-3-yl]pyrazole-4-carbonyl]-5-methyl-1H-indol-6-yl]-1,3,7-triazaspiro[4.4] nonane-2,4-dione]",,,,8.74,7.68,8.38
"Cc1cc2cc(C(=O)c3cnn(-c4ccc(Oc5ccccc5F)cc4C)c3N)[nH]c2cc1N1C(=O)NC2(CC2)C1=O [Example 5-1-372, 6-[2-[5-amino-1-[4-(2-fluorophenoxy)-2-methylphenyl]pyrazole-4-carbonyl]-5-methyl-1H-indol-6-yl]-4,6-diazaspiro[2.4]heptane-5,7-dione]",,,,8.89,7.80,8.21
"COc1ccnc(S(=O)(=O)Nc2cc3[nH]c(C(=O)c4cnn(-c5cnc(Oc6ccccc6F)cc5C)c4N)cc3cc2C)c1 [Example 5-1-482, N-[2-[5-amino-1-[6-(2-fluorophenoxy)-4-methylpyridin-3-yl]pyrazole-4-carbonyl]-5-methyl-1H-indol-6-yl]-4-methoxypyridine-2-sulfonamide]",8.20,6.32,6.85,,,
"Cc1cc(Oc2ccccc2F)ncc1-n1ncc(C(=O)c2cc3cc(OCC(F)F)c(N4CCCS4(=O)=O)cc3[nH]2)c1N [Example 4-25-001, {5-amino-1-[6-(2-fluorophenoxy)-4-methylpyridin-3-yl]pyrazol-4-yl}-[5-(2,2-difluoroethoxy)-6-(1,1-dioxo-1,2-thiazolidin-2-yl)-1H-indol-2-yl]methanone]",8.80,7.54,8.02,,,
"Cc1cc(Oc2ccccc2F)ccc1-n1ncc(C(=O)c2cc3cc(C(C)C)c(NS(C)(=O)=O)cc3[nH]2)c1N [Example 5-1-267, N-[2-[5-amino-1-[4-(2-fluorophenoxy)-2-methylphenyl]pyrazole-4-carbonyl]-5-propan-2-yl-1H-indol-6-yl]methanesulfonamide]",,,,8.70,7.68,7.77
"Cc1cc(Oc2c(F)cccc2F)ncc1-n1ncc(C(=O)c2cc3cc(C(C)C)c(NS(=O)(=O)N4C5CCC4COC5)cc3[nH]2)c1N [Example 5-1-303, N-[2-[5-amino-1-[6-(2,6-difluorophenoxy)-4-methylpyridin-3-yl]pyrazole-4-carbonyl]-5-propan-2-yl-1H-indol-6-yl]-3-oxa-8-azabicyclo [3.2.1]octane-8-sulfonamide]",,,,7.57,5.82,6.49
"Cc1cccc(S(=O)(=O)Nc2cc3[nH]c(C(=O)c4cnn(-c5cnc(Oc6c(F)cccc6F)cc5C)c4N)cc3cc2F)n1 [Example 5-1-533, N-[2-[5-amino-1-[6-(2,6-difluorophenoxy)-4-methylpyridin-3-yl]pyrazole-4-carbonyl]-5-fluoro-1H-indol-6-yl]-6-methylpyridine-2-sulfonamide]",8.33,6.29,6.92,,,
"Cc1cc(Oc2ccccc2F)ccc1-n1ncc(C(=O)c2cc3cc(F)c(NS(=O)(=O)CC4COCCO4)cc3[nH]2)c1N (stereo not drawn) [Example 4-7-002, N-[2-[5-amino-1-[4-(2-fluorophenoxy)-2-methylphenyl]pyrazole-4-carbonyl]-5-fluoro-1H-indol-6-yl]-1-(1,4-dioxan-2-yl)methanesulfonamide]",9.37,8.02,8.04,,,
"Cc1cc(Oc2c(F)cccc2F)ncc1-n1ncc(C(=O)c2cc3cc(OC(F)F)c(N4CCCC4=O)cc3[nH]2)c1N [Example 4-21-008, 1-[2-[5-amino-1-[6-(2,6-difluorophenoxy)-4-methylpyridin-3-yl]pyrazole-4-carbonyl]-5-(difluoromethoxy)-1H-indol-6-yl]pyrrolidin-2-one]",8.39,7.60,8.18,,,
"Cc1cc2cc(C(=O)c3cnn(-c4cnc(Oc5c(F)cccc5F)cc4C)c3N)[nH]c2cc1N1C(=O)NC2(CCN(Cc3ccccc3)CC2)C1=O [Example 5-1-361, 3-[2-[5-amino-1-[6-(2,6-difluorophenoxy)-4-methylpyridin-3-yl]pyrazole-4-carbonyl]-5-methyl-1H-indol-6-yl]-8-benzyl-1,3,8-triazaspiro[4.5]decane-2,4-dione]",,,,8.04,6.77,7.59
"Cc1cc2cc(C(=O)c3cnn(-c4cnc(Oc5c(F)cccc5F)cc4C)c3N)[nH]c2cc1NS(=O)(=O)N1C2CCC1COC2 [Example 5-1-291, N-[2-[5-amino-1-[6-(2,6-difluorophenoxy)-4-methylpyridin-3-yl]pyrazole-4-carbonyl]-5-methyl-1H-indol-6-yl]-3-oxa-8-azabicyclo[3.2.1] octane-8-sulfonamide]",,,,8.00,6.38,6.89
